Experimental findings from US9585880B2, “Cyclic amino compounds for use in the treatment of cardiac disorders” (Universitetet I Oslo, priority 2013, dated 2017) are described below.

The target in this assay is AKAP18δ-PLB interaction (UniProt P26678+Q6JP77). In words: AlphaScreen binding assay of the GST-AKAP18δ : PLB-biotin interaction. On the procedure: Stable and optimal assay conditions were determined by cross-titrating GST-AKAP186 and biotinylated PLB using 10 μg/ml glutathione acceptor beads and 10 μg/ml streptavidin donor beads in an AlphaScreen assay. The excitation wavelength was 680 nm, with the emission wavelength being 520-560 nm. Signal intensity in each well was registered and the optimal concentration to use was chosen to be the concentration prior to the peak of the signal.
Chain of AKAP18δ-PLB interaction (Q6JP77 whole entry): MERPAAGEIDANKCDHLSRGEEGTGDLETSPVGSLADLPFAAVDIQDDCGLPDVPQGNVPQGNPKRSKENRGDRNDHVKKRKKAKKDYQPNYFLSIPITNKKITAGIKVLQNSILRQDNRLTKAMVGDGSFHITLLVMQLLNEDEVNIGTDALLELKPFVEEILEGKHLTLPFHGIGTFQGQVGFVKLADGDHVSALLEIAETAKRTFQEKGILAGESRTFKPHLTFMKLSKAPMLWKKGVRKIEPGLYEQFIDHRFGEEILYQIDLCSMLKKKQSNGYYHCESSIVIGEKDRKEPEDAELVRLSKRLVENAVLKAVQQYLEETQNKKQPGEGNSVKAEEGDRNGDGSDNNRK
Chain of AKAP18δ-PLB interaction (P26678 whole entry): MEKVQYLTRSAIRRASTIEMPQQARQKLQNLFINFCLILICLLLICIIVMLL
Concentrations to give a reliable signal were determined to be between 2 and 16 nM for AKAP18δ-GST and 4 and 20 nM PLB-biotin for relevant preparations of protein, for example 4 nM and 20 nM, respectively.
compound library was screened with the above assay.
The compounds of Examples 2-10 were tested for pharmacological activity using the Binding Assay described above. The compounds of Examples 2-10 were dissolved in DMSO to a concentration of 10 mM, diluted in aqueous solution and tested for their ability to disrupt the AKAP18δ-PLB interaction at different concentrations in the AlphaScreen binding assay as described above.
Signal intensity was recorded at each concentration of compound. Maximal signal representing full interaction between AKAP186 and PLB at 0 μM compound was set to 100% and loss of signal (due to compound disruption of the protein-protein interaction) plotted against log [conc compound] and curves fitted in SigmaPlot (see FIGS. 2a-2i).
(Alpha assays give light when donor and acceptor beads are brought close together.)

Where [1] appears, read: compound library screen, Table 1 compounds similar to those of formula (I), read-out: EC50.
Where [2] appears, read: half-maximal disruption of AKAP18δ-PLB signal, compounds of Examples 2-10, read-out: EC50.

Structures are written as SMILES. Where a name gives a salt, the structure may show the parent alone. Read-outs that look alike come from different tables or passages of the source.

Take `CC(C)(C)c1ccc(CN(Cc2ccc(F)cc2)Cc2nc(C(=O)O)cs2)cc1`: the EC50 under setting [1] came out at 0.0416 mM.

Take `Cc1ccc(CN(Cc2ccc(F)cc2)Cc2nc(C(=O)O)cs2)cc1`: the EC50 under setting [1] worked out at 0.137 mM.

For `O=C(O)c1csc(CN(CCC(c2ccccc2)c2ccccc2)Cc2ccccc2F)n1`, the EC50 under setting [1] stood at 0.0106 mM.

As to `O=C(O)c1csc(CN(CCC(c2ccccc2)c2ccccc2)Cc2ccc(F)cc2)n1`, the EC50 under setting [1] amounted to 0.018 mM.

Turning to `CC(C)(C)c1ccc(CN(CCC(c2ccccc2)c2ccccc2)Cc2nc(C(=O)O)cs2)cc1`, under setting [1], the EC50 was determined as 0.0211 mM.

On to `COc1ccc(CN(Cc2ccc(F)cc2)Cc2nc(C(=O)O)cs2)cc1`, for which the EC50 under setting [1] came out at 0.0256 mM.

Consider `Cc1ccc(CN(CCC(c2ccccc2)c2ccccc2)Cc2nc(C(=O)O)cs2)cc1`, for which the EC50 under setting [1] came to 0.0354 mM.

As for `O=C(O)c1ccc(CN(Cc2ccccc2)Cc2ccc(C(=O)O)cc2)cc1`, the EC50 under setting [1] was 0.0296 mM.

As to `Nc1ccc(CN(Cc2ccccc2)Cc2ccc(N)cc2)cc1`, the EC50 under setting [1] amounted to 0.0038 mM.

For `CCN(CC)c1ccc(CN(Cc2ccccc2)Cc2ccc(N(CC)CC)cc2)cc1`, the EC50 under setting [1] is 0.0029 mM.

`Nc1ccc(CN(Cc2ccc(N)cc2)Cc2ccc(N)cc2)cc1`: under setting [1], the EC50 amounted to 0.0222 mM.

In the case of `Cc1ccc(NC(=O)Nc2ccc(CN(Cc3ccccc3)Cc3ccc(NC(=O)Nc4ccc(C)cc4)cc3)cc2)cc1`, the EC50 under setting [1] was 0.0025 mM.

Consider `O=C(O)c1csc(CN(Cc2ccc(F)cc2)Cc2cccc(Cl)c2)n1`, for which the concentration for a half-maximal effect (EC50) under setting [1] was found to be 0.0364 mM.

Consider `O=C(O)c1csc(CN(Cc2ccc(F)cc2)Cc2ccc(OCc3ccccc3)cc2)n1`, for which the EC50 under setting [1] worked out at 0.0395 mM.

For `O=C(O)c1csc(CN(Cc2ccc(F)cc2)Cc2cccc(C(F)(F)F)c2)n1`, the EC50 under setting [1] is 0.0605 mM.

For the molecule `O=C(O)c1csc(CN(Cc2ccc(F)cc2)Cc2ccc(Cl)cc2)n1`, under setting [1], the EC50 came out at 0.0943 mM.

In the case of `Cc1ccc(CN(Cc2cccc(C(F)(F)F)c2)Cc2nc(C(=O)O)cs2)cc1`, the EC50 under setting [1] turned out to be 0.0983 mM.

Take `O=C(O)c1csc(CN(Cc2cccc(C(F)(F)F)c2)Cc2ccccc2F)n1`: under setting [1], the EC50 was 0.216 mM.

Regarding `O=[N+]([O-])c1ccc(CN(Cc2ccccc2)Cc2ccc([N+](=O)[O-])cc2)cc1`, the EC50 under setting [1] worked out at 0.0075 mM.

Turning to `O=C(Nc1ccc(F)cc1)Nc1ccc(CN(Cc2ccccc2)Cc2ccc(NC(=O)Nc3ccc(F)cc3)cc2)cc1`, the EC50 under setting [1] is 0.0093 mM.

As to `O=C(Nc1ccccc1)Nc1ccc(CN(Cc2ccccc2)Cc2ccc(NC(=O)Nc3ccccc3)cc2)cc1`, under setting [1], the EC50 is 0.0036 mM.

As to `Cc1ccc(NC(=O)Nc2ccc(CN(Cc3ccc(NC(=O)Nc4ccc(C)cc4)cc3)Cc3ccc(NC(=O)Nc4ccc(C)cc4)cc3)cc2)cc1`, under setting [1], the EC50 worked out at 0.0052 mM.

In the case of `CN(C)c1ccc(CN(Cc2ccccc2)Cc2ccc(N(C)C)cc2)cc1`, the EC50 under setting [1] came out at 0.002 mM.

As to `Cc1ccc(CN2CCc3ccccc3C2)cc1` [Compound 2, N-4-methyl-benzyl-1,2,3,4-tetrahydroisoquinoline], under setting [2], the EC50 came out at 0.142 mM.

In the case of `CC(C)(C)c1ccc(CN2CCc3ccccc3C2)cc1` [Compound 3, N-4-t-butyl-benzyl-1,2,3,4-tetrahydroisoquinoline hydrochloride salt], the EC50 under setting [2] came to 0.0553 mM.

`Cl.c1ccc(CN2CCc3ccccc3C2)cc1` [Compound 4, N-4-benzyl-1,2,3,4-tetrahydroisoquinoline hydrochloride salt]: the EC50 entry runs as follows: (half-maximal disruption of AKAP18δ-PLB signal, compounds of Examples 2-10, value in mM) “single-digit”; (half-maximal disruption of AKAP18δ-PLB signal, compounds of Examples 2-10, value in mM, read-out: EC50) 6.5 mM.

Consider `Brc1ccc(CN2CCc3ccccc3C2)cc1` [Compound 5, N-4-bromo-benzyl-1,2,3,4-tetrahydroisoquinoline hydrochloride salt], for which the EC50 under setting [2] was found to be 0.0645 mM.

As to `O=[N+]([O-])c1ccc(CN2CCc3ccccc3C2)cc1` [Compound 6, N-4-nitro-benzyl-1,2,3,4-tetrahydroisoquinoline], the EC50 under setting [2] was 0.0715 mM.

On to `c1ccc(CN2Cc3ccccc3C2)cc1` [Compound 7, N-benzyl-isoindoline hydrochloride salt], for which, under setting [2], the EC50 stood at 0.207 mM.

Turning to `c1ccc2c(c1)CN(Cc1ccncc1)C2` [Compound 8, N-4-methylpyridyl-isoindoline], the EC50 under setting [2] stood at 0.0718 mM.

One may read the EC50 as the concentration at which the effect is half-maximal.
